Results taken from patent US6638955B2, “Antibiotic oxazolidinone derivatives” (priority 1996, dated 2003).
Values after ≈ are worked out from the molar mass of the structure shown.

Key:
Test in all cases: MIC, agar-dilution, standard in-vitro test
Type in all cases: cell-based
Bacillus subtilis = conditions: 10^4 CFU/spot
Text: (§1) The following results were obtained on a standard in-vitro test system. The activity is described in terms of the minimum inhibitory concentration (MIC) determined by the agar-dilution technique with an inoculum size of 10^4 CFU/spot.

[1] = system: Staphylococcus aureus MRQR (methicillin resistant quinolone resistant); conditions: 10^4 CFU/spot, 37° C., 24 hours
Experimental: as §1
(§2) Staphylococci were tested on agar, using an inoculum of 10^4 CFU/spot and an incubation temperature of 37° C. for 24 hours—standard test conditions for the expression of methicillin resistance.

[2] = system: Staphylococcus aureus MRQS (methicillin resistant quinolone sensitive); conditions: 10^4 CFU/spot, 37° C., 24 hours
Experimental: as §1, §2

[3] = system: Staphylococcus aureus Novb. Res (Novobiocin resistant); conditions: 10^4 CFU/spot, 37° C., 24 hours
Experimental: as §1, §2

[4] = system: Coagulase Negative Staphylococcus MR (methicillin resistant); conditions: 10^4 CFU/spot, 37° C., 24 hours
Experimental: as §1, §2

[5] = system: Staphylococcus aureus Oxford; conditions: 10^4 CFU/spot, 37° C., 24 hours
Experimental: as §1, §2

[6] = system: Coagulase Negative Staphylococcus MS (methicillin sensitive); conditions: 10^4 CFU/spot, 37° C., 24 hours
Experimental: as §1, §2

Enterococcus faecalis = conditions: agar with 5% defibrinated horse blood, 10^4 CFU/spot, 37° C., 5% carbon dioxide, 48 hours
Experimental: as §1
(§3) Streptococci and enterococci were tested on agar supplemented with 5% defibrinated horse blood, an inoculum of 10^4 CFU/spot and an incubation temperature of 37° C. in an atmosphere of 5% carbon dioxide for 48 hours—blood is required for the growth of some of the test organisms.

[7] = system: Streptococcus pyogenes C203; conditions: agar with 5% defibrinated horse blood, 10^4 CFU/spot, 37° C., 5% carbon dioxide, 48 hours
Experimental: as §1, §3

## CC(=O)NC[C@H]1CN(c2ccc(C3=CCN(C(=O)OC(C)(C)C)CC3)cc2)C(=O)O1 [Example 1, N-((5S)-3-(4-(1-tert-butoxycarbonyl-1,2,5,6-tetrahydropyrid-4-yl)phenyl)-2-oxoxazolidin-5yl-methyl)acetamide]
Bacillus subtilis
  MIC: 0.25 µg/mL (≈ 0.602 µM)
[1]
  MIC: 0.5 µg/mL (≈ 1.2 µM)
[2]
  MIC: 0.5 µg/mL (≈ 1.2 µM)
[3]
  MIC: 0.5 µg/mL (≈ 1.2 µM)
[4]
  MIC: 1.0 µg/mL (≈ 2.41 µM)
[5]
  MIC: 1.0 µg/mL (≈ 2.41 µM)
[6]
  MIC: 0.25 µg/mL (≈ 0.602 µM)
Enterococcus faecalis
  MIC: 1.0 µg/mL (≈ 2.41 µM)
[7]
  MIC: 1.0 µg/mL (≈ 2.41 µM)
